Measurements as given in patent US20050009903A1, “CB2-selective cannabinoid analogues” (priority 2003, published 2005).
“And” between values parts separate entries of the source, which are not always exact repeats. Equal entries are not always repeated. Where two headings read alike, the source gives them in different places.

Key:
[1] = biological target: T1, CB1 receptor (Rattus norvegicus, UniProt P20272); experiment: CB1 assay: displacement of [3H]CP-55,940 from rat brain membrane preparation; format: binding
T1 construct: from tissue; host or cells: rat whole brain, P2 membranes
T1 sequence (P20272 whole entry): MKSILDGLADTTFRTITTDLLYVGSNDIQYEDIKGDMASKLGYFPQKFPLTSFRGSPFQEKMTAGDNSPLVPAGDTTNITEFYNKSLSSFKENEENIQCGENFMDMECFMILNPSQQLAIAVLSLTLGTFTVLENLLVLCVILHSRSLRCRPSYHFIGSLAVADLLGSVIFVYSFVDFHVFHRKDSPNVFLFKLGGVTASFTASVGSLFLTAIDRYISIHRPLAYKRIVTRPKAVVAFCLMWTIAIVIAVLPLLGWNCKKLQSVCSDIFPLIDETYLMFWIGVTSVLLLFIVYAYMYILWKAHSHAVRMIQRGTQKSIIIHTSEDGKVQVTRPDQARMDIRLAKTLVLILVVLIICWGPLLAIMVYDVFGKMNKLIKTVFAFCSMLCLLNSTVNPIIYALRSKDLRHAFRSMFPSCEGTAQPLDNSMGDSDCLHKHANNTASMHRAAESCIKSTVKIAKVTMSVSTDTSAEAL

[2] = biological target: CB2 receptor (Homo sapiens, UniProt P34972); experiment: CB2 assay: displacement of [3H]CP-55,940 from cloned human CB2 receptor preparation (transfected HEK 293 cells); format: binding; design: expressed in transfected cells; details: for Ratio CB1/CB2 / Ratio CB17CB2: ratio of Ki values
Chain of CB2 receptor (P34972 whole entry): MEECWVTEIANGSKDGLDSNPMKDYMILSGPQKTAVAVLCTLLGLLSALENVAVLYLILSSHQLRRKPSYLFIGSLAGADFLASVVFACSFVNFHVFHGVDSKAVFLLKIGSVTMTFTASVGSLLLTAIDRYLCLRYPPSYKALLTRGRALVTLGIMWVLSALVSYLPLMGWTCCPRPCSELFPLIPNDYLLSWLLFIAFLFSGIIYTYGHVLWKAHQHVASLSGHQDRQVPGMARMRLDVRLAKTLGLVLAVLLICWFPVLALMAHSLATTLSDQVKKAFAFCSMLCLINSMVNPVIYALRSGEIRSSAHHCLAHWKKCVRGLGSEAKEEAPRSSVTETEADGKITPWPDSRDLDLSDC

[3] = Table 1, mean ± SEM, rat brain membranes, [3H]CP 55,940, read-out: Ki CB1
[4] = cloned human CB2, read-out: Ki at CB2 receptor
[5] = Table 1, mean ± SEM, cloned human CB2, [3H]CP 55,940, read-out: Ki CB2
[6] = Ki CB2, Table 1, mean ± SEM, cloned human CB2, [3H]CP 55,940
[7] = Ki at CB2 receptor, cloned human CB2
[8] = rat brain membranes, read-out: Ki at CB1 receptor
[9] = Table 2, mean ± SEM, 3-(alkyl-1-naphthoyl)indoles, read-out: Ki CB2
[10] = Table 3, mean ± SEM, 3-(alkoxy-1-naphthoyl)indoles, the same values as Ki in nM, read-out: CB1 (receptor affinity)
[11] = Table 2, mean ± SEM, 3-(alkyl-1-naphthoyl)indoles, read-out: Ki CB1

Compound | Ratio CB1/CB2 ([2]; Table 1) | Ki [2, 4] | Ki [1, 8] | Ratio CB17CB2 ([2]; Table 2) | further results
COc1cc(C(C)(C)C)cc2c1C1CC(C)=CCC1C(C)(C)O2 (stereo not shown) [Compound 6a, 1-Methoxy-3-(1′,1′-dimethylethyl)-Δ^8-THC] | 5.4 | 1870 ± 867 nM | – | – | Ki [1, 3]: > 10000 nM
CCC(C)(C)c1cc(OC)c2c(c1)OC(C)(C)C1CC=C(C)CC21 (stereo not shown) [Compound 6b, 1-Methoxy-3-(1′,1′-dimethylpropyl)-Δ^8-THC] | 7.1 | – | – | – | Ki [1, 3]: > 10000 nM; Ki [2, 5]: 1400 ± 66 nM
CCCC(C)(C)c1cc(OC)c2c(c1)OC(C)(C)[C@@H]1CC=C(C)C[C@@H]21 [Compound 6c, 3-(1′,1′-Dimethylbutyl)-1-methoxy-Δ^8-THC] | 31 | – | – | – | Ki [1]: > 10000 nM; Ki [2, 6]: 325 ± 70 nM; Ki [2, 7]: 1870 ± 867 nM
CCCCC(C)(C)c1cc(OC)c2c(c1)OC(C)(C)[C@@H]1CC=C(C)C[C@@H]21 [Compound 6d, 1-Methoxy-3-(1′,1′-dimethylpentyl)-Δ^8-THC] | 93 | – | – | – | Ki [1]: 4000 ± 282 nM; Ki [2, 6]: 43 ± 3 nM
CC(C)(C)c1ccc2c(c1)OC(C)(C)C1CC=C(CO)CC21 (stereo not shown) [Compound 9a, 1-Deoxy-3-(1′,1′-dimethylethyl)-11-hydroxy-Δ^8-THC] | – | 18.1 ± 1.8 nM | 270 ± 58 nM | – | –
CCC(C)(C)c1ccc2c(c1)OC(C)(C)[C@@H]1CC=C(CO)C[C@@H]21 [Compound 9b, 1-Deoxy-3-(1′,1′-dimethylpropyl)-11-hydroxy-Δ^8-THC] | 33 | – | – | – | Ki [1]: 187 ± 23 nM; selectivity for the CB2 receptor ([2]; CB2 over CB1 affinity): 25 fold; Ki [2, 7]: 5.6 ± 1.7 nM
CCCC(C)(C)c1ccc2c(c1)OC(C)(C)[C@@H]1CC=C(CO)C[C@@H]21 [Compound 9c, 1-Deoxy-3-(1′,1′-dimethylbutyl)-11-hydroxy-Δ^8-THC] | 25 | – | – | – | Ki [1]: 84 ± 16 nM; Ki [2, 6]: 3.4 ± 0.5 nM
CCCCC(C)(C)c1ccc2c(c1)OC(C)(C)C1CC=C(CO)CC21 (stereo not shown) [Compound 9d, 1-Deoxy-3-(1′,1′-dimethylpentyl)-11-hydroxy-Δ^8-THC] | 5.5 | – | – | – | Ki [1, 3]: 8.8 ± 1.4 nM; Ki [2, 5]: 1.6 ± 0.03 nM
CCCCCC(C)(C)c1ccc2c(c1)OC(C)(C)C1CC=C(CO)CC21 (stereo not shown) [Compound 9e, 1-Deoxy-3-(1′,1′-dimethylhexyl)-11-hydroxy-Δ^8-THC] | 3.5 | 0.52 nM | 1.8 ± 0.3 nM | – | –
COc1cc(C(C)(C)C)cc2c1[C@@H]1CC(CO)=CC[C@H]1C(C)(C)O2 [Compound 11a, 1-Methoxy-3-(1′,1′-dimethylethyl)-11-hydroxy-Δ^8-THC] | 5.6 | – | – | – | Ki [1]: 1860 ± 148 nM; Ki [2, 7]: 333 ± 104 nM
CCC(C)(C)c1cc(OC)c2c(c1)OC(C)(C)C1CC=C(CO)CC21 (stereo not shown) [Compound 11b, 1-Methoxy-3-(1′,1′-dimethylpropyl)-11-hydroxy-Δ^8-THC] | 12 | – | – | – | Ki [1, 3]: 1010 ± 117 nM; Ki [2, 5]: 85 ± 21 nM
CCCC(C)(C)c1cc(OC)c2c(c1)OC(C)(C)[C@@H]1CC=C(CO)C[C@@H]21 [Compound 11c, 1-Methoxy-3-(1′,1′-dimethylbutyl)-11-hydroxy-Δ^8-THC] | 12 | – | – | – | Ki [1]: 347 ± 34 nM; Ki [2, 6]: 28 ± 1 nM
CCCCC(C)(C)c1cc(OC)c2c(c1)OC(C)(C)[C@@H]1CC=C(CO)C[C@@H]21 [Compound 11d, 1-Methoxy-3-(1′,1′-dimethylpentyl)-11-hydroxy-Δ^8-THC] | 9.1 | – | – | – | Ki [1]: 40 ± 6 nM; Ki [2, 6]: 4.4 ± 0.3 nM; Ki [2, 7]: 40 ± 6 nM
CCCCCC(C)(C)c1cc(OC)c2c(c1)OC(C)(C)C1CC=C(CO)CC21 (stereo not shown) [Compound 11e, 1-Methoxy-3-(1′,1′-dimethylhexyl)-11-hydroxy-Δ^8-THC] | 11 | 1.4 nM and 1.2 nM | 15 nM and 14 nM | – | –
CCCCCCC(C)(C)c1cc(OC)c2c(c1)OC(C)(C)[C@@H]1CC=C(CO)C[C@@H]21 [Compound 11f, 11-hydroxy-3-(1′,1′-dimethylheptyl)-1-methoxy-Δ^8-THC] | 14 | – | – | – | Ki [1]: 14 ± 3 nM; Ki [2, 7]: 1 nM and 1.2 nM
CCCCCn1cc(C(=O)c2cccc3ccccc23)c2ccccc21 [JWH-018] | – | – | – | 3.3 | –
CCCn1c(C)c(C(=O)c2cccc3ccc(C)cc23)c2ccccc21 [JWH-046, 2-methyl-1-propyl-3-(7-methyl-1-naphthoyl)indole] | – | – | – | 21 | –
CCCCCn1c(C)c(C(=O)c2cccc3ccc(C)cc23)c2ccccc21 [JWH-048, 2-Methyl-1-pentyl-3-(7-methyl-1-naphthoyl) indole] | – | – | – | 22 | –
CCCn1cc(C(=O)c2cccc3ccccc23)c2ccccc21 [JWH-072] | – | – | – | 6.2 | –

Compound | Ratio CB1/CB2 ([2]; Table 1) | Ki [2, 4] | Ki [1, 8] | Ratio CB17CB2 ([2]; Table 2) | further results
CCCn1cc(C(=O)c2cccc3ccc(C)cc23)c2ccccc21 [JWH-076, 1-Propyl-3-(7-methyl-1-naphthoyl)indole] | – | 106 ± 46 nM | 214 ± 11 nM | 2.0 | –
CCCCCn1cc(C(=O)c2ccc(C)c3ccccc23)c2ccccc21 [JWH-122] | – | – | – | 0.6 | Ki [2, 9]: 1.2 ± 1.2 nM
CCCn1c(C)c(C(=O)c2ccc(C)c3ccccc23)c2ccccc21 [JWH-148, 2-Methyl-1-propyl-3-(4-methyl-1-naphthoyl)indole] | – | 14 ± 1 nM | 123 ± 8 nM | 8.8 | –
CCCCCn1c(C)c(C(=O)c2ccc(C)c3ccccc23)c2ccccc21 [JWH-149] | – | – | – | 6.8 | Ki [2, 9]: 0.73 ± 0.03 nM
CCCCCn1c(C)c(C(=O)c2cccc3cc(OC)ccc23)c2ccccc21 [JWH-153, 2-Methyl-1-pentyl-3-(6-methoxy-1-naphthoyl)indole] | – | 11 ± 1 nM | – | – | Ki [1]: 240 ± 24 nM; Ki [1, 10]: 250 ± 24 nM
CCCCCn1c(C)c(C(=O)c2cccc3ccc(OC)cc23)c2ccccc21 [JWH-159, 2-Methyl-1-pentyl-3-(7-methoxy-1-naphthoyl)indole] | – | 10.4 ± 1.4 nM | 45 ± 1 nM | – | –
CCCn1c(C)c(C(=O)c2cccc3ccc(OC)cc23)c2ccccc21 [JWH-160, 2-Methyl-1-propyl-3-(7-methoxy-1-naphthoyl)indole] | – | – | 1570 ± 201 nM | – | Ki ([2]; Table 3, mean ± SEM, 3-(alkoxy-1-naphthoyl)indoles, the same values as Ki in nM, read-out: CB2 (receptor affinity)): 441 ± 110 nM
CCCn1cc(C(=O)c2cccc3cc(OC)ccc23)c2ccccc21 [JWH-163, 1-Propyl-3-(6-methoxy-1-naphthoyl)indole] | – | 138 ± 12 nM | – | – | Ki [1, 10]: 2360 ± 215 nM
CCCCCn1cc(C(=O)c2cccc3ccc(OC)cc23)c2ccccc21 [JWH-164, 1-Pentyl-3-(7-methoxy-1-naphthoyl)indole] | – | 6.9 ± 0.2 nM | 6.6 ± 0.7 nM | – | –
CCCn1cc(C(=O)c2cccc3ccc(OC)cc23)c2ccccc21 [JWH-165, 1-Propyl-3-(7-methoxy-1-naphthoyl)indole] | – | 71 ± 8 nM | 204 ± 26 nM | – | –
CCCCCn1cc(C(=O)c2cccc3cc(OC)ccc23)c2ccccc21 [JWH-166, 1-Pentyl-3-(6-methoxy-1-naphthoyl)indole] | – | 1.9 ± 0.1 nM | 44 ± 10 nM | – | –
CCCc1ccc(C(=O)c2cn(CCC)c3ccccc23)c2ccccc12 [JWH-180, 1-Propyl-3-(4-propyl-1-naphthoyl)indole] | – | – | – | 2.7 | Ki [1, 11]: 26 ± 2 nM; Ki [2, 9]: 9.6 ± 2 nM
CCCCCn1c(C)c(C(=O)c2ccc(CCC)c3ccccc23)c2ccccc21 [JWH-181, 2-Methyl-1-pentyl-3-(4-propyl-1-naphthoyl)indole] | – | 0.62 ± 0.04 nM | – | 2.1 | Ki [1, 11]: 1.3 ± 0.1 nM
CCCCCn1cc(C(=O)c2ccc(CCC)c3ccccc23)c2ccccc21 [JWH-182, 1-Pentyl-3-(4-propyl-1-naphthoyl)indole] | – | – | – | 0.6 | Ki [1, 11]: 0.65 ± 0.03 nM; Ki [2, 9]: 1.1 ± 0.1 nM
CCCc1ccc(C(=O)c2c(C)n(CCC)c3ccccc23)c2ccccc12 [JWH-189, 2-Methyl-1-propyl-3-(4-propyl-1-naphthoyl)indole] | – | – | – | 4.3 | Ki [1, 11]: 52 ± 2 nM; Ki [2, 9]: 12 ± 0.8 nM
CCCCCn1cc(C(=O)c2ccc(CC)c3ccccc23)c2ccccc21 [JWH-210, 1-Pentyl-3-(4-ethyl-1-naphthoyl)indole] | – | – | 0.46 ± 0.03 nM | 0.67 | Ki [2, 9]: 0.69 ± 0.01 nM
CCCn1c(C)c(C(=O)c2ccc(CC)c3ccccc23)c2ccccc21 [JWH-211, 2-Methyl-1-propyl-3-(4-ethyl-1-naphthoyl)indole] | – | 12 ± 0.8 nM | 70 ± 0.8 nM | 5.8 | –
CCCn1cc(C(=O)c2ccc(CC)c3ccccc23)c2ccccc21 [JWH-212, 1-Propyl-3-(4-ethyl-1-naphthoyl)indole] | – | – | – | 3.3 | Ki [1, 11]: 33 ± 0.9 nM; Ki [2, 9]: 10 ± 1.2 nM
